Here are results for 14 compounds from patent US5892099A, “3,7-dithiaprostanoic acid derivative” (Ono Pharmaceutical Co., Ltd., priority 1997, dated 1999).

Experiment [1] deals with T1, mouse EP4 (Mus musculus, UniProt P32240).
T1 construct: expressed in transfected cells; host or cells: CHO cells
The experiment can be described thus: Binding assay using expression cell of the prostanoid receptor subtype (EP4), competition of specific 3H-PGE2 binding. The note with it: membrane fraction of EP4 expressing CHO cells; 2.5 nM 3H-PGE2; pH 6.0; 1 hour at room temperature; read-out: Dissociation constant for EP4 Ki. As for the experimental part: (§1) (I) Binding assay using expression cell of the prostanoid receptor subtype
(§2) The preparation of membrane fraction was carried out according to the method of Sugimoto et al (J. Biol. Chem. 267, 6463-6466 (1992)) using the prostanoid receptor subtypes (mouse EP3α, EP4) expressing CHO cells.
(§3) The standard assay mixture containing membrane fraction (0.5 mg/ml) and ^3 H-PGE2 in a final volume of 200 μl was incubated for 1 hour at room temperature. The reaction was terminated by the addition of 3 ml of ice-cold buffer. The mixture was rapidly filtered through a GF/B glass filter. The radioactivity associated with the filter was measured by liquid scintillation counting.
(§4) Kd and Bmax value were determined from Scatchard plots (Ann. N. Y. Sci., 51, 660 (1949)). Non-specific binding was calculated as the bound in the presence of an excess (2.5 μM) of unlabeled PGE2.
(§5) In the experiment for competition of specific ^3 H-PGE2 binding by the compounds of the present invention, 2.5 nM of ^3 H-PGE2 and various concentration of the compounds of the present invention were added. The following buffer was used in all reactions. Buffer: 10 mM potassium phosphate (pH 6.0), 1 mM EDTA, 10 mM MgCl2, 0.1M NaCl. The dissociation constant (Ki) of each compound was calculated by the following equation.

Experiment [2] deals with T2, mouse EP3α (Mus musculus, UniProt P30557).
T2 construct: expressed in transfected cells; host or cells: CHO cells
T2 sequence (P30557 1-365): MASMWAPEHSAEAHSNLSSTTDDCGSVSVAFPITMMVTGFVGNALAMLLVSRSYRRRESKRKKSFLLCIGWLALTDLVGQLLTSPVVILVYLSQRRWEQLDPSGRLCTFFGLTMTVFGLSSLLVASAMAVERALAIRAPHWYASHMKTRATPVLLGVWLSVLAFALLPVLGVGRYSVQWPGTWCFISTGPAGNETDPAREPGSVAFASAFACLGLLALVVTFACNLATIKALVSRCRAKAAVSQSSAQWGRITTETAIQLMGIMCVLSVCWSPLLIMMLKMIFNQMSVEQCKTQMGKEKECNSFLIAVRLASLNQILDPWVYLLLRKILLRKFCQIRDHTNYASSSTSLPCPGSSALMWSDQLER
Briefly: Binding assay using expression cell of the prostanoid receptor subtype (EP3α), competition of specific 3H-PGE2 binding. The settings on record: membrane fraction of EP3α expressing CHO cells; 2.5 nM 3H-PGE2; pH 6.0; 1 hour at room temperature; read-out: Dissociation constant for EP3α Ki. As for the experimental part:
as §1, §2, §3, §4, §5

T1 sequence (P32240 whole entry): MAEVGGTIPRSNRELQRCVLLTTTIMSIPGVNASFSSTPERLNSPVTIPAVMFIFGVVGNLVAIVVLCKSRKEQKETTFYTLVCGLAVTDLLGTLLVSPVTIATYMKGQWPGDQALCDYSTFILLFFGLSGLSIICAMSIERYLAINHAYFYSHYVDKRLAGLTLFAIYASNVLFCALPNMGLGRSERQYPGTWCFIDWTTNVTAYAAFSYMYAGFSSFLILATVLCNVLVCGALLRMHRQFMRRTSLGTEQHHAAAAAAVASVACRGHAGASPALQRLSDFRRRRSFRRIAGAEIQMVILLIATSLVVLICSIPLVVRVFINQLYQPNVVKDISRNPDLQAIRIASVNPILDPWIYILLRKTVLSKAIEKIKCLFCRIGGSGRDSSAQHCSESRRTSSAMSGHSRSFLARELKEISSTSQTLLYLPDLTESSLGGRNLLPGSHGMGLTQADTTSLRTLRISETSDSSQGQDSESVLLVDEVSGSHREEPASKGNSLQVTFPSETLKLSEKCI

Turning to `CCCCC(O)/C=C/C1C(O)CC(=O)C1SCCCSCC(=O)O` (stereo not drawn) [Example 2(m), 11α,15α-dihydroxy-9-oxo-3,7-dithia-20-norprost-13E-enoic acid], the Ki stood at 1.4 nM in experiment [1] and 23 nM in experiment [2].

As to `CCCC[C@H](C)[C@H](O)/C=C/[C@@H]1C(SCCCSCC(=O)O)C(=O)C[C@H]1O` (stereo partly drawn) [Example 2(o), 11α,15α-dihydroxy-9-oxo-16β-methyl-3,7-dithiaprost-13E-enoic acid], the Ki in experiment [1] was 0.2 nM; in experiment [2] it was 25 nM.

For the compound `O=C(O)CSCCCS[C@H]1C(=O)C[C@@H](O)[C@@H]1/C=C/[C@@H](O)C1CCCCC1` [Example 2(h), 11α,15α-dihydroxy-9-oxo-15-cyclohexyl-3,7-dithia-16,17,18,19,20-pentanorprost-13E-enoic acid], the Ki in experiment [1] was found to be 22 nM; in experiment [2], 610 nM.

Turning to `O=C(O)CSCCCSC1C(=O)CC(O)C1/C=C/C(O)CCc1ccccc1` (stereo not drawn) [Example 2(g), 11α,15α-dihydroxy-9-oxo-17-phenyl-18,19,20-trinor-3,7-dithiaprost-13E-enoic acid], the Ki in experiment [1] was found to be 6 nM.

In the case of `O=C(O)CSCCCSC1C(=O)CC(O)C1/C=C/C(O)CCCC1CC1` (stereo not drawn) [Example 2(q), 11α,15α-dihydroxy-9-oxo-19,20-methano-3,7-dithiaprost-13E-enoicacid], the Ki in experiment [1] was found to be 0.4 nM.

On to `CCCC[C@H](C)C[C@H](O)/C=C/[C@H]1[C@H](O)CC(=O)[C@@H]1SCCCSCC(=O)O` [Example 2(b), 11α,15α-dihydroxy-9-oxo-17α,20-dimethyl-3,7-dithiaprost-13E-enoic acid], for which the Ki in experiment [1] was determined as 0.6 nM.

Regarding `CC/C=C\CC(O)/C=C/C1C(O)CC(=O)C1SCCCSCC(=O)O` (stereo not drawn) [Example 2(e), 11α,15α-dihydroxy-9-oxo-3,7-dithiaprost-13E,17Z-dienoic acid], the Ki in experiment [1] is 0.91 nM.

For the compound `CCCCC[C@](C)(O)/C=C/[C@H]1[C@H](O)CC(=O)[C@@H]1SCCCSCC(=O)O` [Example 2(k), 11α,15α-dihydroxy-9-oxo-15β-methyl-3,7-dithiaprost-13E-enoic acid], the Ki in experiment [1] is 0.7 nM; in experiment [2], 34 nM.

Regarding `CCCCCC(O)/C=C/C1C(O)CC(=O)C1SCCCSCC(=O)O` (stereo not drawn) [Example 2, 11α,15α-dihydroxy-9-oxo-3,7-dithiaprost-13E-enoic acid], the Ki in experiment [1] came out at 0.7 nM; in experiment [2], 1500 nM.

For `CCCCC[C@H](O)CC[C@@H]1C(SCCCSCC(=O)O)C(=O)C[C@H]1O` (stereo partly drawn) [Example 2(d), 11α,15α-dihydroxy-9-oxo-3,7-dithiaprostanoic acid], in experiment [1], the Ki is 1.6 nM.

As to `O=C(O)CSCCCSC1C(=O)CC(O)C1/C=C/C(O)CC1CCCC1` (stereo not drawn) [Example 2(t), 11α,15α-dihydroxy-9-oxo-16-cyclopentyl-3,7-dithia-17,18,19,20-tetranorprost-13E-enoic acid], the inhibitory constant (Ki) in experiment [1] stood at 4.2 nM.

In the case of `O=C(O)CSCCCSC1C(=O)CC(O)C1/C=C/C(O)Cc1ccccc1` (stereo not drawn) [Example 2(f), 11α,15α-dihydroxy-9-oxo-16-phenyl-17,18,19,20-tetranor-3,7-dithiaprost-13E-enoic acid], the Ki in experiment [1] was 7 nM; in experiment [2] it was 130 nM.

`CCCCC(C)(O)C/C=C/C1C(O)CC(=O)C1SCCCSCC(=O)O` (stereo not drawn) [Example 2(c), 11α,16β-dihydroxy-9-oxo-16α-methyl-3,7-dithiaprost-13E-enoic acid]: in experiment [1], the inhibition constant (Ki) turned out to be 5.6 nM.

As to `CCCCC(C)CC(O)/C=C/C1C(O)CC(=O)C1SCCCSCC(=O)O` (stereo not drawn) [Example 2(a), 11α,15α-dihydroxy-9-oxo-17β,20-dimethyl-3,7-dithiaprost-13E-enoic acid], the figures for the Ki in experiment [1] and in experiment [2] were 0.8 nM and 10 nM, respectively.

As a reminder, the Ki is the dissociation constant of the complex between target and ligand, obtained from inhibition or displacement.
